Measurements from publication PMC8362065, “Easily Available, Amphiphilic Diiron Cyclopentadienyl Complexes Exhibit in Vitro Anticancer Activity in 2D and 3D Human Cancer Cells through Redox Modulation Triggered by CO Release” (Chemistry (Weinheim an Der Bergstrasse, Germany), 2021).

Columns and labels:
[1] = Octanol/water partition coefficient, shake-flask method and UV/Vis
Description: Octanol/water partition coefficients (log Pow ). Partition coefficients (P ow; IUPAC: K D partition constant[53]), defined as P ow=corg/caq, where corg and caq are molar concentrations of the selected compound in the organic and aqueous phase, respectively, were determined by the shake‐flask method and UV/Vis measurements.[[16a], [54]] Deionized water and octan‐1‐ol were vigorously stirred for 24 h, to enable saturation of both phases, then separated by centrifugation. A stock solution of the selected Fe compound (ca. 2 mg) was prepared by first adding acetone (50 μL, to help solubilization), followed by water‐saturated octanol (2.5 mL). The solution was diluted with water‐saturated octanol (ca. 1 : 3 v/v ratio, cFe2 ≈10^−4 M, so that 1.5≤A≤2.0 at λ max) and its UV/Vis spectrum was recorded ( A0/org ). An aliquot of the solution (V org=1.2 mL) was transferred into a test tube and octanol‐saturated water (V org=V aq=1.2 mL) was added. The mixture was vigorously stirred for 30 min at 21 °C then centrifuged (RCF 805, 5 min; Hettich EBA 8G). The UV/Vis spectrum of the organic phase was recorded ( Af/org ) and the partition coefficient was calculated as P ow= Af/org /( A0/org g− Af/org ) where A0/org and Af/org are the absorbance in the organic phase before and after partition with the aqueous phase, respectively.[53] For [2B]BF4, [2C]Cl and [3F]CF3SO3 an inverse procedure was followed, starting from a solution of the compound in octanol‐saturated water. The partition coefficient was calculated as P ow=( A0/aq − Af/aq )/ Af/aq where A0/aq and Af/aq are the absorbance in the aqueous phase before and after partition with the organic phase, respectively.

[2] = tested on: Human breast (MCF‐7) carcinoma cell line; assay: MTT assay, 2D cell culture; assay type: cell-based; settings: 72 h
Description: (§1) Compounds [2B]BF4, [2C]CF3SO3, [2D]CF3SO3 and [3F]CF3SO3 were dissolved in water while the other compounds were dissolved in the minimum DMSO amount prior to cell culture testing. A calculated amount of the stock drug DMSO solution was added to the cell culture media to reach a final maximum DMSO concentration of 0.5 %, which had no effects on cell viability.
(§2) Cell cultures. Human colon (HCT‐15), pancreatic (PSN‐1) and breast (MCF‐7) carcinoma cell lines along with human melanoma cells (A375) were obtained from American Type Culture Collection (ATCC, Rockville, MD). Embryonic kidney HEK293 cells were obtained from the European Collection of Cell Cultures (ECACC, Salisbury, UK). Human ovarian 2008 cancer cells were kindly provided by Prof. G. Marverti (Dept. of Biomedical Science of Modena University, Italy). MCF‐7 ADR cells were kindly provided by Prof. N. Colabufo (Dept. Pharmacy, University of Bari, Italy). Cell lines were maintained in the logarithmic phase at 37 °C in a 5 % CO2 atmosphere using the following culture media containing 10 % fetal calf serum (Euroclone, Milan, Italy), antibiotics (50 units/mL penicillin and 50 μg/mL streptomycin) and 2 mM L‐glutamine: i) RPMI‐1640 medium (Euroclone, Milan, Italy) for PSN‐1, 2008, HCT‐15, MCF‐7 and MCF‐7 ADR cells; ii) DMEM for A375 and HEK293 cells.
(§3) MTT assay. The growth inhibitory effect towards tumour cells was evaluated by means of MTT assay as previously described.[57] Briefly, 3–8×10^3 cells/well, dependent upon the growth characteristics of the cell line, were seeded in 96‐well microplates in growth medium (100 μL). After 24 h, the medium was removed and replaced with a fresh one containing the compound to be studied at the appropriate concentration. Triplicate cultures were established for each treatment. After 24 or 72 h, each well was treated with 10 μL of a 5 mg/mL MTT saline solution, and following 5 h of incubation, 100 μL of a sodium dodecyl sulfate (SDS) solution in HCl 0.01 M were added. After an overnight incubation, cell growth inhibition was detected by measuring the absorbance of each well at 570 nm using a Bio‐Rad 680 microplate reader. Mean absorbance for each drug dose was expressed as a percentage of the control untreated well absorbance and plotted against drug concentration. IC50 values, the drug concentrations that reduce the mean absorbance at 570 nm to 50 % of those in the untreated control wells, were calculated by the four‐parameter logistic (4‐PL) model. Evaluation was based on means from at least four independent experiments.

[3] = tested on: MCF‐7 ADR cells; assay: MTT assay, multidrug-resistant cancer cell model overexpressing P-gp; assay type: cell-based, human
Description: The antiproliferative activity was also investigated in a multidrug‐resistant cancer cell model overexpressing P‐gp (MCF‐7 ADR cells).
as §1, §2, §3

[4] = tested on: 3D cell spheroids of human ovarian (2008) cancer cells; assay: Acid phosphatase (APH) assay, 3D spheroid culture; assay type: cell-based; settings: 2008 spheroids, 72 h, APH test
Description: (§4) The remarkable cell‐killing effect observed in 2D cultured cells prompted us to evaluate the in vitro antitumor activity of the complexes on 3D cell cultures. Differently from 2D monolayer culture, 3D spheroid cell culture systems comprise cancer cells in various cell growth stages. Consequently, the multicellular cancer spheroid model is recognized to better reflect the tumour mass in vivo regarding drug permeation, cell interactions, gene expression, hypoxia and nutrient gradients with respect to monolayer cell cultures, making 3D models more predictive than conventional 2D monolayer cultures in screening antitumor drugs.[38] Table 6 summarizes the IC50 values obtained after treatment of 3D cell spheroids of human ovarian (2008) and pancreatic (PSN‐1) cancer cells with the diiron complexes and cisplatin.
(§5) Spheroid cultures. Spheroid cultures were obtained by seeding 2.5×10^3 cells/well in round bottom non‐tissue culture treated 96 well‐plate (Greiner Bio‐one, Kremsmünster, Austria) in phenol red free RPMI‐1640 medium (Sigma Chemical Co.), containing 10 % FCS and supplemented with 20 % methyl cellulose stock solution.
(§6) Acid phosphatase (APH) assay. An APH modified assay was used for determining cell viability in 3D spheroids, as previously described.[58] IC50 values were calculated with a four‐parameter logistic (4‐PL) model. All the values are the means ± SD of not less than four independent experiments.

[5] = tested on: 3D cell spheroids of human pancreatic (PSN‐1) cancer cells; assay: Acid phosphatase (APH) assay, 3D spheroid culture; assay type: cell-based; settings: PSN‐1 spheroids, 72 h, APH test
Description: as §4, §5, §6

[6] = Solubility pattern of the isolated compound (qualitative); assay type: physicochemical; settings: isolated solid
[7] = Stability in D2O, D2O/CD3OD and DMSO-d6/D2O at 37 °C by 1H NMR; assay type: physicochemical; settings: D2O
Description: A detailed study on the behaviour of a selection of the diiron complexes in aqueous media was undertaken. Experimental procedures are provided in the Experimental Section and in the Supporting Information, with data collected in Tables 3, S3 and S4. […] The octanol/water partition coefficients (log P ow) were measured by a UV/Vis method and fall in between 0 and −1, reflecting an amphiphilic or slightly hydrophilic character. […] Conversely, those complexes with aromatic groups (i. e., 1H‐indol‐6‐yl, 2‐naphthyl and bis‐benzyl in [2A]^+, [3G]^+, [4G]^+ and [5H]^+) are less soluble in water and display increased affinity for n‐octanol (log P ow≈0). The diiron compounds are inert in aqueous solution at room temperature, and undergo a slow degradation at 37 °C. Under such conditions, a variable amount (50 to 86 %; Table S3) of the starting material was detected by ^1H NMR in D2O or D2O/CD3OD mixtures after 72 h.[33] During this time, the precipitation of a brown solid was observed, which in one case (from a [2C]CF3SO3 solution) was separated and identified as γ‐Fe2O3 by Raman analysis. In addition, headspace GC analyses performed on 5 % MeOH aqueous solutions of the compounds maintained at 37 °C allowed the identification and quantitation of the carbon monoxide released over a 48 h period (Table S4). These facts indicate that the thermal degradation process in aqueous solution leads to the progressive disassembly of the organometallic scaffold.[16] The presumed, controlled release of the iron centres (converted to iron oxide, see above) and carbon monoxide are two aspects that deserve attention with reference to the biological activity: note that the decay of ferrocene drug candidates into Fe^II ions was previously associated to their cytotoxicity,[34] while the activity of various iron carbonyl complexes was correlated to CO dissociation in the physiological media.[35]
(§7) Stability in water (D2O) and cell culture medium. The procedures are described in the Supporting Information, and data are collected in Table S3.
(§8) Table S3. Stability of diiron complexes in D2O, D2O/CD3OD, DMSO-d6/D2O and cell culture medium (DMEM-
(§9) d/CD3OD) solution at 37 °C calculated by 1H NMR (Me2SO2 internal standard).
(§10) % starting material (72 h) % starting material
(§11) Compound D O D O/CD OD DMSO-d /D O DMEM-d
(§12) [a] X = I for the stability in D 2O, X = CF3SO3 for the stability in cell culture medium. [b] Stability in D 2O and […]

[8] = Stability in cell culture medium (DMEM) at 37 °C by 1H NMR; assay type: physicochemical; settings: DMEM-d (6.6 % CD3OD)
Description: Next, the stability of the diiron compounds in a cell culture medium (DMEM) solution at 37 °C, over a shorter time range (24 h), was assessed by ^1H NMR.
as §7, §8, §9, §10, §11, §12

[9] = tested on: Human colon (HCT‐15) carcinoma cell line; assay: MTT assay, 2D cell culture; assay type: cell-based; settings: HCT‐15 cells, 72 h
Description: as §1, §2, §3

[10] = tested on: Human ovarian 2008 cancer cells; assay: MTT assay, 2D cell culture; assay type: cell-based; settings: 2008 cells, 72 h
Description: as §1, §2, §3

[11] = tested on: Human pancreatic (PSN‐1) carcinoma cell line; assay: MTT assay, 2D cell culture; assay type: cell-based; settings: PSN‐1 cells, 72 h, read-out: IC50 (μM)±SD
Description: as §1, §2, §3

[12] = tested on: human melanoma cells (A375); assay: MTT assay, 2D cell culture; assay type: cell-based; settings: 72 h
Description: as §1, §2, §3

[13] = tested on: Embryonic kidney HEK293 cells; assay: MTT assay, noncancerous cell line; assay type: cell-based, human; settings: 72 h
Description: As one of the main drawbacks of chemotherapeutics is the toxic effect toward noncancerous cells, we measured the cytotoxicity of tested complexes against a noncancerous cell line (HEK293) and calculated the selectivity index (SI, defined as the ratio between the IC50 value in noncancerous cells and the corresponding average IC50 value related to cancer cells; Table 5).
as §1, §2, §3

[14] = tested on: 3D cell spheroids of human ovarian (2008) cancer cells; assay: Acid phosphatase (APH) assay, 3D spheroid culture; assay type: cell-based; settings: 2008 cell line

With `O=C1C=CC(=O)c2ccccc21` [Naphthoquinone, reference compound] the logP at 30 min [1] was 1.8 ± 0.2.
With `COc1cccc2c1C(=O)c1c(O)c3c(c(O)c1C2=O)C[C@@](O)(C(=O)CO)C[C@@H]3O[C@H]1C[C@H](N)[C@H](O)[C@H](C)O1` [doxorubicin, reference compound] the IC50 ([2]; Homo sapiens, MCF7, MCF‐7 cells) was 0.2 ± 0.03 µM, the IC50 ([3]; Homo sapiens, NCI/ADR-RES, MCF‐7 ADR cells, 72 h, MTT) was 7.8 ± 2.2 µM and the “RF=IC50 (resistant cells)/IC50 (wild‐type cells)” value ([3]; MCF‐7 ADR vs MCF‐7, 72 h) was 39.
With “[Fe2Cp2(CO)2(μ‐CO){μ‐CNMe(CH2PO3Et2)}]X [[2B]CF3SO3]” the “IC50±SD (μM)” value [4] was “ineffective” and the “IC50±SD (μM)” value [5] was “ineffective”.
With “[Fe2Cp2(CO)2(μ‐CO){μ‐CNMe(2‐naphthyl)}]I [[3G]I]” the “Solubility in water (qualitative)” value [6] was “sparingly soluble”.
With “[Fe2Cp2(CO)2(μ‐CO){μ‐CNMe(C6H11)}]X [[2C]Cl]” the “Log P ow” value ([1]; octanol/water, 21 °C) was −1.1±0.08, the “% starting material (72 h)” value [7] was 79% and the “% starting material (24 h)” value [8] was 88%.
In the case of “[Fe2Cp2(CO)2(μ‐CO){μ‐CNMe(CH2CHCH2)}]X [[3F]I]”, the “Solubility in water (qualitative)” value [6] is reported as “poorly soluble”.
`N.N.[Cl][Pt][Cl]` [cisplatin, reference compound] gave an IC50 ([2]; MCF‐7 cells) of 8.8 ± 0.2 µM, an IC50 [9] of 16.5 ± 2.2 µM and an IC50 [10] of 2.2 ± 1.4 µM. It also gave an IC50 [11] of 12.1 ± 2.9 µM, an IC50 [12] of 2.1 ± 0.3 µM and an IC50 ([13]; HEK293 noncancerous cells, MTT) of 18.1 ± 3.6 µM. The “SI (selectivity index)” value ([13]; IC50 in noncancerous HEK293 cells / average IC50 in cancer cells) was 2.2, the IC50 [4] was 57.6 ± 3.6 µM and the IC50 [5] was 61.7 ± 12.1 µM. The “IC50 ratio related to 3D and 2D experiments” value [14] was 26.
With “[Fe2Cp2(CO)2(μ‐CO){μ‐CNMe(CH2CHCH2)}]X [[3F]X]” the “% starting material (72 h)” value [7] was 60% and the “% starting material (24 h)” value [8] was 84%.
